target: T1, hNLRP3 (Homo sapiens, UniProt Q96P20); assay: IL-1β production in PMA-differentiated THP-1 cells stimulated with gramicidin; format: cell-based; conditions: gramicidin 5 μM, IL-1β in supernatant, Table 2
T1 construct: THP-1 cells were purchased from the American Type Culture Collection; host or cells: THP-1 cells, PMA-differentiated
How it was run: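 THP-1 cells differentiated with PMA (10 μg/ml, 24 h, or 20 ng/ml, 16-18 h), replated in 2% FBS RPMI and preincubated with compound for 1 h before 5 μM gramicidin for 2 h. Supernatant IL-1β measured by ELISA (1% DMSO) or HTRF (0.38% DMSO).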

T1 sequence (Q96P20 whole entry): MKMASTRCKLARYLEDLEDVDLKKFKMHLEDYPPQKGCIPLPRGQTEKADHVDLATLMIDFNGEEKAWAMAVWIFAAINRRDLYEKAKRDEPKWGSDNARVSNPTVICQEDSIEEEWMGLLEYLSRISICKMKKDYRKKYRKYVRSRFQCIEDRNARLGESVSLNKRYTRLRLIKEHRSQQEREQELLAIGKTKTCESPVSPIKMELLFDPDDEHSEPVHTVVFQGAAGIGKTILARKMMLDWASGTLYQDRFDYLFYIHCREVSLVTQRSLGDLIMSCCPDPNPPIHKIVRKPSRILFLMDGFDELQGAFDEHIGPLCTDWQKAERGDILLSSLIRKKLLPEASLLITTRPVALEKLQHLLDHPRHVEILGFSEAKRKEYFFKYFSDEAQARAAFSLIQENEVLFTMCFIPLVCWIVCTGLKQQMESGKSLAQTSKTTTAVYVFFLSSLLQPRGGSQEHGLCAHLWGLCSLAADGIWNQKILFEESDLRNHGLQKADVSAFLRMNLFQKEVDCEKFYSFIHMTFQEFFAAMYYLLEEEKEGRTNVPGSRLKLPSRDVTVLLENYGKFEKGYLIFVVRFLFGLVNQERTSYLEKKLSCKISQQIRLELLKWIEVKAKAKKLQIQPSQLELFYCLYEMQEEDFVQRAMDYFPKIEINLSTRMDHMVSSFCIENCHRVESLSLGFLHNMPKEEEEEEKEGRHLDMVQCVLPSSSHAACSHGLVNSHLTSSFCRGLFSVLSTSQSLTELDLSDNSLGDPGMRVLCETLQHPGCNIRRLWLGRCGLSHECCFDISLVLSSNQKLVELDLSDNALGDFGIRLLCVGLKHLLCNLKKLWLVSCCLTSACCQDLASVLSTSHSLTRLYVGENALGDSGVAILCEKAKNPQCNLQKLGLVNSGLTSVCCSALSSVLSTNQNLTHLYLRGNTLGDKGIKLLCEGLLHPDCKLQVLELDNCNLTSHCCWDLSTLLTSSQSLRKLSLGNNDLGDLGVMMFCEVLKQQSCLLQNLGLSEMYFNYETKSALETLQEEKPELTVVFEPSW

Compound | IC50
Cc1sc(S(=O)(=O)NC(=O)Nc2c(C(C)C)ccc(C#N)c2C(C)C)cc1C(C)(C)O [Compound 264, N-(3-cyano-2,6-diisopropylphenylcarbamoyl)-4-(2-hydroxypropan-2-yl)-5-methylthiophene-2-sulfonamide] | 5 to 15 µM
CC(C)c1ccc(C#N)c(C(C)C)c1NC(=O)NS(=O)(=O)c1cc(C(C)(C)O)c(Cl)s1 [Compound 265, 5-chloro-N-(3-cyano-2,6-diisopropylphenylcarbamoyl)-4-(2-hydroxypropan-2-yl) thiophene-2-sulfonamide] | 5 to 15 µM
CC(C)(O)c1ncsc1S(=O)(=O)NC(=O)Nc1c2c(cc3c1CCC3)CCC2 [Compound 266] | 1 to 5 µM
CC(C)c1cc(C#N)cc(C(C)C)c1NC(=O)NS(=O)(=O)c1cnc(C(C)(C)O)s1 [Compound 267] | 1 to 5 µM
CC(C)(O)c1ncsc1S(=O)(=O)NC(=O)Nc1c2c(c(F)c3c1CCC3)CCC2 [Compound 268] | 1 to 5 µM

Second part, the compound after the results:

IC50 | Compound
1 to 5 µM | CC(C)c1cc(F)cc(C(C)C)c1NC(=O)NS(=O)(=O)c1cnc(C(C)(C)O)s1 [Compound 269]
1 to 5 µM | CC(C)c1cccc(C(C)C)c1NC(=O)NS(=O)(=O)c1cnc(C(C)(C)O)s1 [Compound 270]
1 to 5 µM | CC(C)c1ccc(Cl)c(C(C)C)c1NC(=O)NS(=O)(=O)c1cnc(C(C)(C)O)s1 [Compound 271]
1 to 5 µM | Cc1cc(C(C)C)c(NC(=O)NS(=O)(=O)c2cnc(C(C)(C)O)s2)c(C(C)C)c1 [Compound 272]
5 to 15 µM | CC(C)(O)c1ncsc1S(=O)(=O)NC(=O)Nc1c2c(c(Cl)c3c1CCC3)CCC2 [Compound 273]
5 to 15 µM | CC(C)c1ccc(F)c(C(C)C)c1NC(=O)NS(=O)(=O)c1cnc(C(C)(C)O)s1 [Compound 274]

Reference: patent US11339136B2 (Novartis AG, priority 2016, dated 2022)
